Source: patent US20260022142A1, “MACROCYCLIC IMMUNOMODULATORS” (Bristol-Myers Squibb Company, priority 2022, published 2026)
Bridge positions count the residues as written; N and C are the ends. Square brackets hold non-standard residues; d marks the D form. Peptide text beside a SMILES is read from it. * marks the point of attachment. ξ: configuration not given here. Bip = N[C@@H](Cc1ccc(-c2ccccc2)cc1)C(=O)O; Phe(3-Me) = Cc1cccc(C[C@H](N)C(=O)O)c1; Cha = N[C@@H](CC1CCCCC1)C(=O)O; ξH = NC(Cc1c[nH]cn1)C(=O)O; dDab = NCC[C@@H](N)C(=O)O; Carboxymethyl = O=C(O)C*; Orn = NCCC[C@H](N)C(=O)O; Aun = NCCCCCCCCCCC(=O)O; Dab = NCC[C@H](N)C(=O)O; Dap = NC[C@H](N)C(=O)O; AEEA = NCCOCCOCC(=O)O

Target: T1, PD-1/PD-L1 interaction (PE-labeled human PD-L1-Ig binding to Jurkat cell line over-expressing human PD-1) (Homo sapiens, UniProt Q15116)
T1 construct: expressed in transfected cells; host or cells: Jurkat
Assay: Jurkat-PD-1 Cell Binding High-Content Screening Assay (CBA)
Type: cell-based
Conditions: Jurkat cell line over-expressing human PD-1; PE-labeled PD-L1-Ig 20 nM final; read-out: Jurkat hPD1-PDL1 IC50
Summary of the method: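 Binding of fluorescent PD-L1-Ig (phycoerythrin on Ig tag, 20 nM final, 1 h) measured by high-content imaging of fixed, Hoechst-counterstained Jurkat-hPD-1 cells. Compound added 2 h at 37° C beforehand, in DMEM with 10% fetal calf serum.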

T1 sequence (Q15116 25-288): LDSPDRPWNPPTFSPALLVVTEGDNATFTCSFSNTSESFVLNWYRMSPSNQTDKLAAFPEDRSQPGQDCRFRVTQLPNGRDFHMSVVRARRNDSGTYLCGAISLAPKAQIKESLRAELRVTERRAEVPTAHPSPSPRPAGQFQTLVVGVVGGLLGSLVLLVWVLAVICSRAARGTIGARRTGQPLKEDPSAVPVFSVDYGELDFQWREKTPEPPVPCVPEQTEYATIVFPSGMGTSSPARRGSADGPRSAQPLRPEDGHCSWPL

Row | IC50 [nM] | SMILES
1 | 37.4 | CC(C)C[C@H]1NC(=O)[C@H](CCCN)NC(=O)[C@H](C(C)C)NC(=O)[C@H](Cc2ccc(-c3ccccc3)cc2)NC(=O)[C@H](C(C)C)NC(=O)[C@H](Cc2c[nH]c3ccccc23)NC(=O)[C@H](CC(=O)O)NC(=O)[C@H](Cc2ccc(OCC(=O)O)cc2)NC(=O)[C@H](CN)NC(=O)CSC[C@@H](C(=O)NCCOCCOCC(=O)N[C@H](CCN)C(=O)NCCCCCCCCCCC(=O)O)NC(=O)[C@H]([C@@H](C)O)NC(=O)[C@H](C(C)C)NC(=O)[C@H](CC2CCCCC2)NC(=O)[C@H](Cc2cnc[nH]2)NC1=O [Compound 1129] ({CH2CO}-[Dap]Y(Carboxymethyl)DWV[Bip]V[Orn][dL]H[Cha]VTC[AEEA][dDab][Aun]-OH; thioether N-14)
2 | 14.3 | CC(C)C[C@H]1NC(=O)[C@H](CCCN)NC(=O)[C@H](C(C)C)NC(=O)[C@H](Cc2ccc(-c3ccccc3)cc2)NC(=O)[C@H](C(C)C)NC(=O)[C@H](Cc2c[nH]c3ccccc23)NC(=O)[C@H](CC(=O)O)NC(=O)[C@H](Cc2ccc(OCC(=O)O)cc2)NC(=O)[C@H](CN)NC(=O)CSC[C@@H](C(=O)NCCOCCOCC(=O)N[C@H](CCCCN)C(=O)NCCCCCCCCCCC(=O)O)NC(=O)[C@H]([C@@H](C)O)NC(=O)[C@H](C(C)C)NC(=O)[C@H](CC2CCCCC2)NC(=O)[C@H](Cc2cnc[nH]2)NC1=O [Compound 1131] ({CH2CO}-[Dap]Y(Carboxymethyl)DWV[Bip]V[Orn][dL]H[Cha]VTC[AEEA][dK][Aun]-OH; thioether N-14)
3 | 35.9 | CC(C)C[C@H]1NC(=O)[C@H](CCCN)NC(=O)[C@H](C(C)C)NC(=O)[C@H](Cc2ccc(-c3ccccc3)cc2)NC(=O)[C@H](C(C)C)NC(=O)[C@H](Cc2c[nH]c3ccccc23)NC(=O)[C@H](CC(=O)O)NC(=O)[C@H](Cc2ccc(OCC(=O)O)cc2)NC(=O)[C@H](CN)NC(=O)CSC[C@@H](C(=O)NCCOCCOCC(=O)N[C@H](CC(=O)O)C(=O)NCCCCCCCCCCC(=O)O)NC(=O)[C@H]([C@@H](C)O)NC(=O)[C@H](C(C)C)NC(=O)[C@H](CC2CCCCC2)NC(=O)[C@H](Cc2cnc[nH]2)NC1=O [Compound 1132] ({CH2CO}-[Dap]Y(Carboxymethyl)DWV[Bip]V[Orn][dL]H[Cha]VTC[AEEA][dD][Aun]-OH; thioether N-14)
4 | 30.2 | CC(C)C[C@H]1NC(=O)[C@H](CCCN)NC(=O)[C@H](C(C)C)NC(=O)[C@H](Cc2ccc(-c3ccccc3)cc2)NC(=O)[C@H](C(C)C)NC(=O)[C@H](Cc2c[nH]c3ccccc23)NC(=O)[C@H](CC(=O)O)NC(=O)[C@H](Cc2ccc(OCC(=O)O)cc2)NC(=O)[C@H](CN)NC(=O)CSC[C@@H](C(=O)NCCOCCOCC(=O)N[C@H](CCC(=O)O)C(=O)NCCCCCCCCCCC(=O)O)NC(=O)[C@H]([C@@H](C)O)NC(=O)[C@H](C(C)C)NC(=O)[C@H](CC2CCCCC2)NC(=O)[C@H](Cc2cnc[nH]2)NC1=O [Compound 1133] ({CH2CO}-[Dap]Y(Carboxymethyl)DWV[Bip]V[Orn][dL]H[Cha]VTC[AEEA][dE][Aun]-OH; thioether N-14)
5 | 28.9 | CC(C)C[C@H]1NC(=O)[C@H](CCCN)NC(=O)[C@H](C(C)C)NC(=O)[C@H](Cc2ccc(-c3ccccc3)cc2)NC(=O)[C@H](C(C)C)NC(=O)[C@H](Cc2c[nH]c3ccccc23)NC(=O)[C@H](CC(=O)O)NC(=O)[C@H](Cc2ccc(OCC(=O)O)cc2)NC(=O)[C@H](CN)NC(=O)CSC[C@@H](C(=O)NCCOCCOCC(=O)N[C@H](CO)C(=O)NCCCCCCCCCCC(=O)O)NC(=O)[C@H]([C@@H](C)O)NC(=O)[C@H](C(C)C)NC(=O)[C@H](CC2CCCCC2)NC(=O)[C@H](Cc2cnc[nH]2)NC1=O [Compound 1134] ({CH2CO}-[Dap]Y(Carboxymethyl)DWV[Bip]V[Orn][dL]H[Cha]VTC[AEEA][dS][Aun]-OH; thioether N-14)
6 | 81.1 | CC(C)C[C@H]1NC(=O)[C@H](CCCN)NC(=O)[C@H](C(C)C)NC(=O)[C@H](Cc2ccc(-c3ccccc3)cc2)NC(=O)[C@H](C(C)C)NC(=O)[C@H](Cc2c[nH]c3ccccc23)NC(=O)[C@H](CC(=O)O)NC(=O)[C@H](Cc2ccc(OCC(=O)O)cc2)NC(=O)[C@H](CN)NC(=O)CSC[C@@H](C(=O)NCCOCCOCC(=O)N[C@H](Cc2cnc[nH]2)C(=O)NCCCCCCCCCCC(=O)O)NC(=O)[C@H]([C@@H](C)O)NC(=O)[C@H](C(C)C)NC(=O)[C@H](CC2CCCCC2)NC(=O)[C@H](Cc2cnc[nH]2)NC1=O [Compound 1135] ({CH2CO}-[Dap]Y(Carboxymethyl)DWV[Bip]V[Orn][dL]H[Cha]VTC[AEEA][dH][Aun]-OH; thioether N-14)
7 | 33.7 | CC(C)C[C@H]1NC(=O)[C@H](CCCN)NC(=O)[C@H](C(C)C)NC(=O)[C@H](Cc2ccc(-c3ccccc3)cc2)NC(=O)[C@H](C(C)C)NC(=O)[C@H](Cc2c[nH]c3ccccc23)NC(=O)[C@H](CC(=O)O)NC(=O)[C@H](Cc2ccc(OCC(=O)O)cc2)NC(=O)[C@H](CN)NC(=O)CSC[C@@H](C(=O)NCCOCCOCC(=O)N[C@H](CC(N)=O)C(=O)NCCCCCCCCCCC(=O)O)NC(=O)[C@H]([C@@H](C)O)NC(=O)[C@H](C(C)C)NC(=O)[C@H](CC2CCCCC2)NC(=O)[C@H](Cc2cnc[nH]2)NC1=O [Compound 1136] ({CH2CO}-[Dap]Y(Carboxymethyl)DWV[Bip]V[Orn][dL]H[Cha]VTC[AEEA][dN][Aun]-OH; thioether N-14)
8 | 18.6 | CC(C)C[C@H]1NC(=O)[C@H](CCCN)NC(=O)[C@H](C(C)C)NC(=O)[C@H](Cc2ccc(-c3ccccc3)cc2)NC(=O)[C@H](C(C)C)NC(=O)[C@H](Cc2c[nH]c3ccccc23)NC(=O)[C@H](CC(=O)O)NC(=O)[C@H](Cc2ccc(OCC(=O)O)cc2)NC(=O)[C@H](CN)NC(=O)CSC[C@@H](C(=O)NCCOCCOCC(=O)NC(Cc2cnc[nH]2)C(=O)NCCCCCCCCCCC(=O)O)NC(=O)[C@H]([C@@H](C)O)NC(=O)[C@H](C(C)C)NC(=O)[C@H](CC2CCCCC2)NC(=O)[C@H](Cc2cnc[nH]2)NC1=O (stereo partly drawn) [Compound 1137] ({CH2CO}-[Dap]Y(Carboxymethyl)DWV[Bip]V[Orn][dL]H[Cha]VTC[AEEA][ξH][Aun]-OH; thioether N-14)
9 | 18.9 | Cc1cccc(C[C@@H]2NC(=O)[C@H](CC(=O)O)NC(=O)[C@H](Cc3ccc(OCC(=O)O)cc3)NC(=O)[C@H](Cc3ccc(OCC(=O)O)cc3)NC(=O)CSC[C@@H](C(=O)NCC(=O)N[C@@H](CCC(=O)O)C(=O)NCC(=O)NCCCCCCCCCCC(=O)O)NC(=O)[C@H](CO)NC(=O)[C@H](C(C)C)NC(=O)[C@H](CC(C)C)NC(=O)[C@H](CCN)NC(=O)[C@@H](CC(C)C)NC(=O)[C@H](CCCN)NC(=O)[C@H](C(C)C)NC(=O)[C@H](Cc3ccc(-c4ccccc4)cc3)NC(=O)[C@H](CC(C)C)NC2=O)c1 [Compound 1138] ({CH2CO}-Y(Carboxymethyl)Y(Carboxymethyl)D[Phe(3-Me)]L[Bip]V[Orn][dL][Dab]LVSCGEG[Aun]-OH; thioether N-14)
10 | 11.3 | Cc1cccc(C[C@@H]2NC(=O)[C@H](CC(=O)O)NC(=O)[C@H](Cc3ccc(OCC(=O)O)cc3)NC(=O)[C@H](Cc3ccc(OCC(=O)O)cc3)NC(=O)CSC[C@@H](C(=O)NCC(=O)N[C@@H](CCC(=O)O)C(=O)NCCCCCCCCCCC(=O)O)NC(=O)[C@H](CO)NC(=O)[C@H](C(C)C)NC(=O)[C@H](CC(C)C)NC(=O)[C@H](CCN)NC(=O)[C@@H](CC(C)C)NC(=O)[C@H](CCCN)NC(=O)[C@H](C(C)C)NC(=O)[C@H](Cc3ccc(-c4ccccc4)cc3)NC(=O)[C@H](CC(C)C)NC2=O)c1 [Compound 1139] ({CH2CO}-Y(Carboxymethyl)Y(Carboxymethyl)D[Phe(3-Me)]L[Bip]V[Orn][dL][Dab]LVSCGE[Aun]-OH; thioether N-14)
11 | 41 | Cc1cccc(C[C@@H]2NC(=O)[C@H](CC(=O)O)NC(=O)[C@H](Cc3ccc(OCC(=O)O)cc3)NC(=O)[C@H](Cc3ccc(OCC(=O)O)cc3)NC(=O)CSC[C@@H](C(=O)N[C@@H](CCCN)C(=O)NCCCCCCCCCCC(=O)O)NC(=O)[C@H](CO)NC(=O)[C@H](C(C)C)NC(=O)[C@H](CC(C)C)NC(=O)[C@H](CCN)NC(=O)[C@@H](CC(C)C)NC(=O)[C@H](CCCN)NC(=O)[C@H](C(C)C)NC(=O)[C@H](Cc3ccc(-c4ccccc4)cc3)NC(=O)[C@@H](CC(C)C)NC2=O)c1 [Compound 1141] ({CH2CO}-Y(Carboxymethyl)Y(Carboxymethyl)D[Phe(3-Me)][dL][Bip]V[Orn][dL][Dab]LVSC[Orn][Aun]-OH; thioether N-14)
12 | 54.9 | Cc1cccc(C[C@@H]2NC(=O)[C@H](CC(=O)O)NC(=O)[C@H](Cc3ccc(OCC(=O)O)cc3)NC(=O)[C@H](Cc3ccc(OCC(=O)O)cc3)NC(=O)CSC[C@@H](C(=O)N[C@@H](CCCCN)C(=O)NCCCCCCCCCCC(=O)O)NC(=O)[C@H](CO)NC(=O)[C@H](C(C)C)NC(=O)[C@H](CC(C)C)NC(=O)[C@H](CCN)NC(=O)[C@@H](CC(C)C)NC(=O)[C@H](CCCN)NC(=O)[C@H](C(C)C)NC(=O)[C@H](Cc3ccc(-c4ccccc4)cc3)NC(=O)[C@@H](CC(C)C)NC2=O)c1 [Compound 1142] ({CH2CO}-Y(Carboxymethyl)Y(Carboxymethyl)D[Phe(3-Me)][dL][Bip]V[Orn][dL][Dab]LVSCK[Aun]-OH; thioether N-14)
13 | 26.1 | Cc1cccc(C[C@@H]2NC(=O)[C@H](CC(=O)O)NC(=O)[C@H](Cc3ccc(OCC(=O)O)cc3)NC(=O)[C@H](Cc3ccc(OCC(=O)O)cc3)NC(=O)CSC[C@@H](C(=O)N[C@H](CCN)C(=O)NCCCCCCCCCCC(=O)O)NC(=O)[C@H](CO)NC(=O)[C@H](C(C)C)NC(=O)[C@H](CC(C)C)NC(=O)[C@H](CCN)NC(=O)[C@@H](CC(C)C)NC(=O)[C@H](CCCN)NC(=O)[C@H](C(C)C)NC(=O)[C@H](Cc3ccc(-c4ccccc4)cc3)NC(=O)[C@@H](CC(C)C)NC2=O)c1 [Compound 1145] ({CH2CO}-Y(Carboxymethyl)Y(Carboxymethyl)D[Phe(3-Me)][dL][Bip]V[Orn][dL][Dab]LVSC[dDab][Aun]-OH; thioether N-14)
